The values below are quoted from earlier work in patent US20040247626A1, “Stable aqueous dispersion of 1, 2-benzisothiazoline-3-one (bit)” (priority 2004, published 2004).

Consider `O=c1[nH]sc2ccccc12` [BIT, 1,2-benzisothiazolin-3-one], for which the solubility in water result is listed as “sparingly soluble”.
